Reference: US12139461B1, “Piperidine compounds as PDE5 inhibitors” (KING SAUD UNIVERSITY, priority 2024, dated 2024)
“And” between values parts separate entries of the source, which are not always exact repeats. Equal entries are not always repeated.

Tests used:
[1] = molecular target: Phosphodiesterase type 5 (PDE5) (Homo sapiens (Human), UniProt O76074); test: In vitro phosphodiesterase type 5 (PDE5) inhibition assay; assay type: biochemical; conditions: purified PDE5, IMAP FP assay
male rats = test: Copulatory behavior testing; assay type: in vivo, rat; conditions: 5 mg/kg oral; for mean intromission interval (MII): MII=EL/IF
Description: Sexually mature Wistar albino male and female rats weighing 150-180 g (10-14 weeks old) were used in our study. Males were trained for sexual behavior with estrus females, that is, two hours a day for one week, before the investigations. Females were brought into the estrous phase artificially by sequential injection of estradiol benzoate (Sigma) (25 μg/animal) and progesterone (Sigma) (250 μg/animal) subcutaneously, 48 and 4 hours before pairing, respectively. Only those sexually active animals were used subsequently in the study. Sexually active rats were isolated and housed in separate cages at room temperature (24±2° C.) on a reversed day/night cycle with a relative humidity of 50-55% during the experimental period. All sexual studies were performed in a calm laboratory condition under subdued light. For the toxicity study, adult Wistar albino male rats were used separately. Rats were obtained from the Experimental Animal Care Center, College of Pharmacy, King Saud University. Animals were fed with a standard pellet diet and provided water ad libitum. All experiments were performed per the protocols and recommendations of the NIH Guide for the Care and Use of Laboratory Animals and the legal requirements of King Saud University for investigations on humans and animals.
Based on a preliminary study to select the appropriate dose for the promising synthesized compounds, the compounds were administered separately to sexually experienced male rats by oral gavage at 5 mg/kg in a 0.5% sodium carboxymethyl cellulose (CMC) vehicle. […] All solutions were freshly prepared at a concentration that allowed the administration of 1 ml/kg.
After drug treatment, rats were housed separately in transparent cages for acclimation. Thirty minutes after drug treatment, a sexually receptive female rat with estrous phase was introduced in each cage for 30 min and the following parameters of the copulatory behavior were recorded: namely mount latency (ML; time from introduction of the female until the first mount with or without penile insertion, it measures the degree of arousal or sexual interest or libido of the male), mount frequency (MF; the number of mounts until ejaculation, it is a measure of the degree of the male's sexual interest or libido), intromission latency (IL; time from introduction of the female until the first intromission, it measures the degree of sexual excitement and erection), intromission frequency (IF; number of vaginal penetrations until ejaculation, it measures the degree of erection), ejaculation latency (EL; time from the first intromission until ejaculation, it determines the excellent organization of copulation in rats) and post-ejaculatory interval (PEI; time interval between an ejaculation and the following first mount, it measures the refractory period that comes after ejaculation). Latency values represent the number of seconds that elapses from the introduction of the female into the copulatory arena until the male executes the first mount, intromission or ejaculation. Frequency values represent the number of ejaculations, mounts or intromission recorded during the copulatory test.
Depending on these parameters, the following can be calculated: Copulatory efficiency (CE)=(IF/MF)×100 and mean intromission interval (MII)=EL/IF as previously described (Aydogan F. et al., J Ethnopharmacol 257 (2020) 112868; Besong E B. et al., Biochem Res Int 2018 (2018) 2869727, the contents of each of which are hereby incorporated by reference in their entirety). Experiments were repeated blindly three times using new fresh (unused) animals in each experiment.

[2] = system: sexually experienced male rats; test: Penile erection index (noncontact erection test); assay type: in vivo, rat; conditions: Rattus norvegicus, oral, linear regression of proportion of responding rats, read-out: effective dose ED50 (dose required to give 50% responding rats)
Description: The penile erection index is an established means of determining the erection promoting properties of a substance. Determination of penile erection in a noncontact position was calculated as reported previously (Haripriya V M. et al., Andrologia 51 (2019) e13180; Sharma V. et al., J Ethnopharmacol 143 (2012) 201-206, the contents of each of which are hereby incorporated by reference in their entirety). The sexually experienced male rats of all groups were given the treatment 30 minutes before experimentation. The number of animals for each dose was ten rats in each experiment. […] The results shown are the average of three separate experiments. Control animals were given 0.5% CMC as a vehicle.
The rats of each group were placed in the observation cages (five at a time) divided into half by two sheets of metal mesh, preventing contact but allowing auditory, visual and olfactory stimuli. After a 5-min adaptation period, the test was started by placing an estrus female on the other side of the cage. Penile erection was recorded when the rats bent down to lick their erect penis. Homosexual mounting was also counted when a male rat mounted another male rat performing pelvic thrusts with or without a penile erection. […] The effective dose ED50 (the dose required to give 50% responding rats) for examined compounds was calculated using linear regression analysis by GraphPad software with the proportion of responding rats as the input data and expressed as μmol/kg.

## COc1ccc(S(=O)(=O)N2CCC(c3ccccc3)CC2)c(OC)c1 [Compound C1, 1-((2,4-Dimethoxyphenyl)sulfonyl)-4-phenylpiperidine]
[1]
  IC50: 106 ± 2.07 nM
other
  melting point: 191 to 193 °C

## COc1ccc(S(=O)(=O)N2CCC(c3ccccc3)CC2)cc1OC [Compound C2, 1-((3,4-Dimethoxyphenyl)sulfonyl)-4-phenylpiperidine]
[1]
  IC50: 185 ± 3.61 nM
other
  melting point: 207 to 209 °C

## COc1ccccc1S(=O)(=O)N1CCC(c2ccccc2)CC1 [Compound C3, 1-((2-Methoxyphenyl)sulfonyl)-4-phenylpiperidine]
[1]
  IC50: 85.2 ± 1.66 nM
other
  melting point: 173 to 175 °C

## O=S(=O)(c1ccc(Cl)cc1)N1CCC(c2ccccc2)CC1 [Compound C5]
[1]
  IC50: 675 ± 13.2 nM

## Cc1cc(C)c(S(=O)(=O)N2CCC(c3ccccc3)CC2)c(C)c1 [Compound C6, 1-(Mesitylsulfonyl)-4-phenylpiperidine]
[1]
  IC50: 296 ± 5.77 nM
other
  melting point: 157 to 159 °C

## CC(C)c1cc(C(C)C)c(S(=O)(=O)N2CCC(c3ccccc3)CC2)c(C(C)C)c1 [Compound C7, 1-((2,4,6-tri-isiopropylphenyl)sulfonyl)-4-phenylpiperidine]
[1]
  IC50: 520 ± 10.1 nM

## O=S(=O)(c1ccccc1)N1CCC(c2ccccc2)CC1 [Compound C8]
[1]
  IC50: 54.2 ± 1.06 nM

## Cc1ccc(S(=O)(=O)N2CCC(c3ccccc3)CC2)cc1 [Compound C10]
[1]
  IC50: 133 ± 2.59 nM

## CC(C(=O)Nc1ccc(S(N)(=O)=O)cc1)N1CCC(Cc2ccccc2)CC1 (centres unmarked) [Compound C12, 2-(4-Benzylpiperidin-1-yl)-N-(4-sulfamoylphenyl)-2-methylacetamide]
[1]
  IC50: 874 ± 17.1 nM

## NS(=O)(=O)c1ccc(NC(=O)CN2CCC(Cc3ccccc3)CC2)cc1 [Compound C13, 2-(4-Benzylpiperidin-1-yl)-N-(4-sulfamoylphenyl)acetamide]
[1]
  IC50: 221 ± 4.32 nM

## COc1ccc(NC(=O)CN2CCC(Cc3ccccc3)CC2)cc1 [Compound C15, 2-(4-Benzylpiperidin-1-yl)-N-(4-methoxyphenyl)acetamide]
[1]
  IC50: 184 ± 3.6 nM
other
  melting point: 61 to 63 °C

## CC(C(=O)Nc1ccc(F)cc1)N1CCC(Cc2ccccc2)CC1 (centres unmarked) [Compound C17]
[1]
  IC50: 279 ± 5.43 nM

## O=S(=O)(c1ccccc1)N1CCC(Cc2ccccc2)CC1 [Compound C18]
[1]
  IC50: 112 ± 2.19 nM

## COc1ccc(S(=O)(=O)N2CCC(Cc3ccccc3)CC2)cc1OC [Compound C20]
[1]
  IC50: 63.3 nM
Male rats
  ML, IL, IF, MF and EL compared to untreated controls: not significantly different
  ejaculation latency (EL): prolonged
  intromission frequency (IF): 7.6
  intromission latency (IL): 229.1 s
  mount frequency (MF): 16.0
  mount latency (ML): 95.5 s
  post-ejaculatory interval (PEI): 401.8 s
  mean intromission interval (MII): did not alter
Male rats; CE=(IF/MF)x100
  copulatory efficiency (CE): did not alter
Male rats; CE=(IF/MF)x100, listed as C 20
  copulatory efficiency (CE): 48.5%
Male rats; listed as C 20
  mean intromission interval (MII): 44.7
  ejaculation latency (EL): 325.1 s

## COc1ccc(S(=O)(=O)N2CCC(Cc3ccccc3)CC2)c(OC)c1 [Compound C24, 1-((2,4-Dimethoxyphenyl)sulfonyl)-4-Benzylpiperidine]
[1]
  IC50: 56.3 nM and 56.4 nM
Male rats
  efficacy in improving copulatory behavior: more pronounced
  ejaculation latency (EL): 377.6 s
  intromission frequency (IF): 9.3
  intromission latency (IL): 193.8 s
  mount frequency (MF): 17.3
  mount latency (ML): 85.0 s
  post-ejaculatory interval (PEI): 370.0 s
  mean intromission interval (MII): 41.2
Male rats; CE=(IF/MF)x100
  copulatory efficiency (CE): 54.0%

## CC(C)c1cc(C(C)C)c(S(=O)(=O)N2CCC(Cc3ccccc3)CC2)c(C(C)C)c1 [Compound C27, 1-((2,4,6-Tri-isopropylphenyl)sulfonyl)-4-Benzylpiperidine]
[1]
  IC50: 143 ± 2.78 nM

## Cc1ccc(S(=O)(=O)N2CCC(Cc3ccccc3)CC2)cc1 [Compound C28]
[1]
  IC50: 56.5 nM
Male rats
  efficacy in improving copulatory behavior: more pronounced
  ejaculation latency (EL): 332.8 s
  intromission frequency (IF): 9.1
  intromission latency (IL): 195.5 s
  mount frequency (MF): 17.5
  mount latency (ML): 94.6 s
  post-ejaculatory interval (PEI): 393.3 s
  mean intromission interval (MII): 36.6
Male rats; CE=(IF/MF)x100
  copulatory efficiency (CE): 52.3%

## O=S(=O)(c1ccc(Cl)cc1)N1CCC(Cc2ccccc2)CC1 [Compound C29]
[1]
  IC50: 250 ± 4.88 nM

## O=C(CN1CCC(Cc2ccccc2)CC1)Nc1ccccc1 [Compound C30]
[1]
  IC50: 59 nM
Male rats
  ML, IL, IF, MF and EL compared to untreated controls: not significantly different
  ejaculation latency (EL): 324.6 s
  intromission frequency (IF): 6.8
  intromission latency (IL): Weak but significant reductions
  mount frequency (MF): 14.8
  mount latency (ML): 95.5 s
  post-ejaculatory interval (PEI): 411.8 s
  mean intromission interval (MII): did not alter
Male rats; CE=(IF/MF)x100
  copulatory efficiency (CE): did not alter
Male rats; CE=(IF/MF)x100, listed as C 30
  copulatory efficiency (CE): 46.8%
Male rats; listed as C 30
  mean intromission interval (MII): 49.2
  intromission latency (IL): 215.3 s

## O=C(CN1CCC(Cc2ccccc2)CC1)NCc1ccccc1 [Compound C31]
[1]
  IC50: 74.9 ± 1.46 nM

## O=C(CN1CCC(Cc2ccccc2)CC1)Nc1ccc(F)cc1 [Compound C32]
[1]
  IC50: 203 ± 3.95 nM

## COc1cc(CNC(=O)CN2CCC(Cc3ccccc3)CC2)cc(OC)c1OC [Compound C34, 2-(4-Benzylpiperidin-1-yl)-N-(3,4,5-trimethoxybenzyl)acetamide]
[1]
  IC50: 60.5 ± 1.18 nM

## CCCc1nn(C)c2c(=O)[nH]c(-c3cc(S(=O)(=O)N4CCN(C)CC4)ccc3OCC)nc12 [sildenafil, reference compound]
Male rats
  ejaculation latency (EL): 426.6 s
  intromission frequency (IF): 17.8
  intromission latency (IL): 135.1 s
  mount frequency (MF): 26.6
  mount latency (ML): 68.5 s
  post-ejaculatory interval (PEI): 294.5 s
  mean intromission interval (MII): 24.3
[2]
  ED50: 8.52 µmol/kg
